Assay results reported in PubChem BioAssay (NCI).
Where “and” joins values, the source holds several entries; their conditions need not be identical. Equal entries are not always repeated.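 Protocol summary: plate cells (96-well), add compound at 5 concentrations, incubate 48 h, interpolate endpoints linearly. GI50 = concentration required for 50% inhibition of growth. TGI is the concentration that stops growth completely.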

Legend:
Assay in all cases: NCI-60 cell line screen, 48 h
786-0 renal = test system: 786-0 renal
A549 NSCLC = test system: A549 NSCLC
DU-145 prostate = test system: DU-145 prostate
HL-60(TB) leukemia = test system: HL-60(TB) leukemia
OVCAR-4 ovarian = test system: OVCAR-4 ovarian
OVCAR-5 ovarian = test system: OVCAR-5 ovarian
OVCAR-8 ovarian = test system: OVCAR-8 ovarian
SR leukemia = test system: SR leukemia
SW-620 colon = test system: SW-620 colon
UACC-257 melanoma = test system: UACC-257 melanoma

Row | Structure (SMILES) | GI50 (786-0 renal) | TGI (786-0 renal) | GI50 (A549 NSCLC) | TGI (A549 NSCLC) | GI50 (DU-145 prostate) | TGI (DU-145 prostate) | GI50 (HL-60(TB) leukemia) | TGI (HL-60(TB) leukemia) | GI50 (OVCAR-4 ovarian) | TGI (OVCAR-4 ovarian) | GI50 (OVCAR-5 ovarian) | TGI (OVCAR-5 ovarian) | GI50 (OVCAR-8 ovarian) | TGI (OVCAR-8 ovarian) | GI50 (SR leukemia) | TGI (SR leukemia) | GI50 (SW-620 colon) | TGI (SW-620 colon) | GI50 (UACC-257 melanoma) | TGI (UACC-257 melanoma)
1 | COc1ccc2c(c1)OC(N)=C(C#N)C2c1cc(OC)c(OC)c(OC)c1 (stereo unspecified) | 0.0538 µM | > 100 µM | 0.0401 µM | > 100 µM | 0.0279 µM | 0.0802 µM | 0.0256 µM | 0.068 µM | 0.0714 µM | > 100 µM | 0.059 µM | > 100 µM | 0.0355 µM | > 70.2 µM | 0.0345 µM | > 100 µM | 0.038 µM | > 100 µM | 0.0457 µM | > 100 µM
2 | O=C1NC(=NCCc2ccc(F)cc2)S/C1=C\c1ccc2ncccc2c1 | > 25 µM | > 25 µM | > 25 µM | > 25 µM | > 25 µM | > 25 µM | > 25 µM | > 25 µM | > 25 µM | > 25 µM | > 25 µM | > 25 µM | > 25 µM | > 25 µM | 7.09 µM | > 25 µM | > 23.3 µM | > 25 µM | > 25 µM | > 25 µM
3 | O=C1CC(c2c[nH]c3ccc(F)cc23)C(=O)N1 (stereo unspecified) | > 100 µM | > 100 µM | > 100 µM | > 100 µM | > 100 µM | > 100 µM | > 100 µM | > 100 µM | > 100 µM | > 100 µM | > 100 µM | > 100 µM | > 100 µM | > 100 µM | > 100 µM | > 100 µM | > 100 µM | > 100 µM | > 100 µM | > 100 µM
4 | COC(=O)NC1C(C)OC(OC2C/C=C(/C)C3C=CC4C(OC5CC(OC6CCC(OC7CC(O)C(OC8CCC(O)C(C)O8)C(C)O7)C(C)O6)C(OC(C)=O)C(C)O5)C(C)CC(C)C4C3(C)/C(O)=C3/C(=O)OC4(CC(C=O)=CC(O)C4/C=C\2C)C3=O)CC1(C)[N+](=O)[O-] (stereo unspecified) | 0.21 µM | 2.2 µM and 0.518 µM | 0.48 µM | 8.73 µM and 2.5 µM |  | 5.07 µM | 0.354 µM | 4.43 µM and 2.53 µM | 1.56 µM | 7.26 µM and 4.66 µM | 1.14 µM | 4.71 µM and 2.55 µM | 0.265 µM | 3.85 µM and 2.73 µM |  | 11 µM | 0.212 µM | 4.74 µM and 1.11 µM | 1.09 µM | 2.47 µM and 11.1 µM
5 | CCCn1c2c(c3ccccc3c1=O)C(=O)c1ccccc1-2 |  | > 100 µM |  | > 100 µM |  | > 100 µM |  | 7.25 µM |  | > 100 µM |  | > 100 µM |  | > 100 µM |  | > 100 µM |  | > 100 µM |  | > 100 µM
6 | CC1CC2C3CCC4=CC(=O)C=CC4(C)C3(F)C(O)CC2(C)C1(O)C(=O)COP(=O)(O)O (stereo unspecified) | > 500 µM | > 500 µM | > 500 µM | > 500 µM | > 500 µM | > 500 µM | > 500 µM | > 500 µM | > 500 µM | > 500 µM | > 500 µM | > 500 µM | > 500 µM | > 500 µM |  | > 100 µM | > 500 µM | > 500 µM | > 500 µM | > 500 µM
7 | C#Cc1cccc(Nc2ncnc3cc(NC(=O)CCl)ccc23)c1 | 1.07 µM | 5.53 µM | 3.59 µM | 7.93 µM | 2.8 µM | 5.91 µM | 4.45 µM | 11.3 µM | 2.16 µM | 6.95 µM | 1.12 µM | 5.63 µM | 1.61 µM | 6.58 µM | 0.535 µM | 4.08 µM | 0.832 µM | 3.08 µM | 3.76 µM | 8.12 µM
8 | CCOC(=O)[C@@H](C)C[C@H](Cc1ccccc1)NC(=O)c1csc([C@@H](C[C@H](C(C)C)N(C)C(=O)[C@@H](NC(=O)[C@H]2CCCCN2C)C(C)(C)CC)OC(C)=O)n1 | < 0.00167 µM | 4.86 µM | < 0.00167 µM | > 16.7 µM | < 0.00167 µM |  | < 0.00167 µM | 0.0034 µM | 0.0146 µM | > 16.7 µM | 0.0037 µM | > 16.7 µM | 0.00231 µM | > 16.7 µM | < 0.00167 µM | 3.39 µM | < 0.00167 µM | > 16.7 µM | 0.0442 µM | > 16.7 µM
9 | COc1ccc(-c2cc(-c3ccc(Nc4nc(Nc5ccccc5)nc(Nc5ccc(Cl)cc5)n4)cc3)nc(N)n2)cc1 | 11.5 µM | 33.1 µM | 20.5 µM | > 50 µM | 12.1 µM | 26.9 µM | 2.31 µM | 17.9 µM | 10.7 µM | > 50 µM | 9.72 µM | 26.3 µM | 15.1 µM | > 50 µM | 5.63 µM | 18.7 µM | 13.1 µM | 44.9 µM | 15.9 µM | 45.5 µM
10 | Oc1ccc(Cl)cc1C(c1cc(Cl)ccc1O)C(Cl)(Cl)Cl | 2 µM | 3.99 µM | 2.68 µM | 8.25 µM | 1.77 µM | 3.42 µM | 2.45 µM | 5.13 µM | 2.71 µM | 10.7 µM | 1.66 µM | 3.68 µM | 2.89 µM | 9.59 µM | 1.5 µM | 5.34 µM | 1.73 µM | 3.3 µM | 2.68 µM | 10.3 µM
11 | CCOC(=O)c1c(-c2ccccc2)[n+](=O)c2cc(Cl)c(Cl)cc2n1[O-] | 1.54 µM | 2.87 µM | 15.5 µM | 34.4 µM | 9.4 µM | 22.9 µM | 2.68 µM | > 100 µM | 2.48 µM | 6.62 µM | 22 µM | 47.7 µM | 2.8 µM | 8.01 µM | 0.529 µM | > 100 µM | 16.5 µM | 37.1 µM | 2.61 µM | 8.41 µM
12 | C=C1C(=O)O[C@H]2[C@H]1CC/C(COC(=O)c1cc(OC)c(OC)c(OC)c1)=C\CC[C@@]1(C)O[C@@H]21 | 1.27 µM | 2.72 µM | 3.05 µM | 12.1 µM | 1.23 µM | 2.47 µM | 0.711 µM | 2.95 µM | 2.09 µM | 6.11 µM | 1.76 µM | 5.08 µM | 1.85 µM | 10.3 µM | 0.342 µM | 7.33 µM | 0.355 µM | 1.57 µM | 1.39 µM | 3.12 µM
